# Patent US20210300932A1, “CYCLIC PEPTIDES TARGETING ALPHA-4-BETA-7 INTEGRIN” (Zealand Pharma A/S, priority 2015, published 2021)
# Key:
# [1] = target: T1, CYP1A2 (Homo sapiens, UniProt P05177); test: in vitro
# T1 sequence (P05177 1-516): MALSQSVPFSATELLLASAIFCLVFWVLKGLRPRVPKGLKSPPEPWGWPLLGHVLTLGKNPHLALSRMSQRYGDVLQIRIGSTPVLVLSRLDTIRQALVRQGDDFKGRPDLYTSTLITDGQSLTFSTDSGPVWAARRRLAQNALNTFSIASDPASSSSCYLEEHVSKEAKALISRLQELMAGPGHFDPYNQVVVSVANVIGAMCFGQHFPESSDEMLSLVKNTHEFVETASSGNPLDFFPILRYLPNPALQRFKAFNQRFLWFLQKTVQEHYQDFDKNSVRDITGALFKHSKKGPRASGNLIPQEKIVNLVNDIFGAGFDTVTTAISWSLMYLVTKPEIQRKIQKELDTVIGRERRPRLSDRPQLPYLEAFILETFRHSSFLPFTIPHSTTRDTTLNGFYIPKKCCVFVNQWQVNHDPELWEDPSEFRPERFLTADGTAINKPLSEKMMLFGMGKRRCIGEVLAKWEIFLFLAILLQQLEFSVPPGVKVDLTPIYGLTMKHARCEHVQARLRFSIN
# Procedure: (§1) Cytochrome P450 Inhibition Assay
# (§2) Analyses were performed using standard LC/MS/MS protocols.
# [2] = target: CYP2C9 (Homo sapiens, UniProt P11712); test: in vitro
# Procedure: as §1, §2
# [3] = target: CYP3A4 (Homo sapiens, UniProt P08684); test: in vitro
# Procedure: as §1, §2
# [4] = in vitro; conditions: Control buffer/Buffer at 0.1 uM % Recovery
# Procedure: (§3) An equilibrium dialysis (HTDialysis) method was used employing 50% plasma collected from CD-1 mice or Sprague-Dawley rats and incubated with K2EDTA. Test articles were assessed at 1 microM concentration in three replicates. Incubation time as 5 hours and plasma and buffer standards were assessed using LC/MS/MS. Percentage recovery was calculated as (Cbuffer+Cplasma)/[average]Cinitial, [average]Cinitial being measured in triplicate from the test samples prior to dialysis. Percentage of compound unbound was calculated as Cbuffer/Cplasma.
# [5] = system: plasma proteins; test: in vitro; conditions: CD-1, mouse
# Procedure: as §3
# [6] = target: CYP2D6 (Homo sapiens, UniProt P10635); test: in vitro
# [7] = Plasma protein binding determination, equilibrium dialysis, mouse plasma; conditions: first table; buffer/buffer control
# Procedure: as §3
# [8] = system: plasma proteins; test: as above; conditions: CD-1, mouse, % recovery, Mouse plasma, equilibrium dialysis
# Procedure: as §3
# [9] = system: DSS experimental model of ulcerative colitis; test: 8-Day efficacy study in DSS model (therapeutic); type: in vivo, C57BI/6 mice; conditions: 40 mg/kg p.o.
# Description: The STDs in ascending order bracketing the study samples and dosing solutions • 1. The study samples • 2.
# Description of Tested Compounds
# Animals. Female C57BI/6 mice (Charles River, St-Constant, Qc), weighting 16-19 g at delivery were used for this study. Following arrival in the animal facility, all animals were subjected to a general health evaluation. An acclimation period of 7-14 days was allowed before the beginning of the study.
# Oral dosing of the test article and the vehicle. From Day 5 to Day 8, nacellins and the vehicle were administered as a single slow bolus (over approximately 5 seconds) via oral route (p.o.), according to the procedure of administration of solution by gavage: the animal was firmly restrained. A bulb-tipped gastric gavage needle of 22G was passed through the side of the mouth and was advanced towards the oesophagus. The test articles and the vehicle were dosed orally at 5 mL/kg.
# Intraperitoneal dosing of the test articles and the vehicle. On day 5, DATK32 antibody was administered in only on Day 5, as a single slow bolus (over approximately 5 seconds) via the i.p. route. […] Intraperitoneal administration was performed accordingly to the following procedure: the mouse was restrained manually and held with the head and body tilted downward. The tip of the needle (27 G) was inserted through the skin and just past the abdominal wall. A short pull back of the plunger of the syringe was done prior to administration of the solution to make sure that the syringe was not inserted in any abdominal organ (fluid would be pulled back into the syringe in this case).
# Inflammation Score. Once the mouse was euthanized, the colon was collected and its length was measured. Lesion length was also measured. Colon inflammation was scored based on severity of oedema and ulceration.
# Disease Activity Index (DAI) assessment. Body weight and DAI were measured on Day 5 in order to distribute DSS-treated animals in two uniform groups prior dosing. Specific symptoms associated to UC were scored based on the severity of each particular symptoms: 1—blood in stool (negative hemoccult, positive hemoccult, blood traces in stool visible, rectal bleeding); 2—stool consistency (normal, soft but still formed, very soft, diarrhea); 3—posture and fur (normal; ruffled fur; ruffled fur combined to slight hunched posture and slight dehydration; ruffled fur combined to hunched posture, dehydration and altered walking; moribund (euthanasia is mandatory before the animal reach this point). The overall DAI score was the sum of the three parameters (maximum score 9). Body weight measurement and DAI assessment were performed also on Day 8 to evaluate the effect of the treatments.
# Collection of samples. On Day 8, five hours after ET02451-01, ET02452-01 and vehicle dosing, the animals were euthanized by cardiac puncture under general anesthesia, according to the “Guide to the Care and Use of Experimental Animals” published by the CCAC. Blood was transferred in a Sarstedt tube containing EDTA. Mesenteric and peripheral (inguinal, auxiliary and brachial) lymph nodes were collected and transferred on ice in corresponding tubes containing cold PBS. Nodes were kept on ice until tissue preparation.
# Cell population labeling. Blood was withdrawn by cardiac puncture and collected on EDTA-coated tubes. Mensenteric lymph nodes (MLN) and peripheral lymph nodes (PLN) were also collected. Mononuclear cells from the tissues will be isolated using density gradient (Lympholyte) and they were stained with fluorescent antibodies. […] After washes, cells were fixed using BD Fix Solution. Percentage of different subpopulations of T lymphocytes were then analysed using FACSCalibur cytometer. Antibodies employed were the same as listed for the single-dose PD studies above.
# [10] = mouse, in vivo
# Procedure: (§4) In Vivo Pharmacokinetic Assessments in Rodents
# (§5) Oral bioavailability of test compounds was conducted by assessing plasma exposure of following one or two oral doses in mice and, in some cases, comparing said plasma exposure with that following a single intravenous dose of the same compound.
# (§6) Body weights were recorded on the day of dosing.
# (§7) Food restriction: Animals dosed p.o. were deprived of food overnight and fed ˜2 h following dosing.
# (§8) Dosing: The formulation containing the test compound were administered p.o. by gavage with disposable feeding needles.
# (§9) Sample collection: Terminal blood and tissue samples were collected under O2/CO2 anesthesia by cardiac puncture.
# (§10) Sample processing/storage: All blood samples were transferred into K2EDTA tubes on wet ice and centrifuged within 5 min (3200×g for 5 min at 4° C.) to obtain plasma. Samples were stored frozen at −80° C. until bioanalysis.
# (§11) Bioanalytical Method Qualification and Sample Analysis:
# (§12) Instrumentation: AB Sciex API 4000 Q-TRAP MS/MS system equipped with an Agilent LC system with a binary pump, a solvent degasser, a thermostatted column compartment, a CTC autosampler and a divert valve installed between the column and mass spectrometer inlet.
# [11] = in vivo; conditions: male, CD-1, mouse
# Procedure: as §4, §5, §6, §7, §8, §9, §10, §11, §12
# [12] = In vivo pharmacokinetic assessments in rodents; conditions: for F: plasma
# Procedure: as §4, §5, §6, §7, §8, §9, §10, §11, §12
# [13] = target: T2, Recombinant human integrin α4β7 (Homo sapiens, UniProt P13612+P26010, DEL724-798); test: Integrin α4β7—MAdCAM-1 ELISA competition assay; type: binding; conditions: ratio a4b1 ELISA IC50 / a4b7 ELISA IC50
# T2 construct: purchased R&D Systems 5397-A3-050
# T2 sequence (P13612 34-977 limits assumed): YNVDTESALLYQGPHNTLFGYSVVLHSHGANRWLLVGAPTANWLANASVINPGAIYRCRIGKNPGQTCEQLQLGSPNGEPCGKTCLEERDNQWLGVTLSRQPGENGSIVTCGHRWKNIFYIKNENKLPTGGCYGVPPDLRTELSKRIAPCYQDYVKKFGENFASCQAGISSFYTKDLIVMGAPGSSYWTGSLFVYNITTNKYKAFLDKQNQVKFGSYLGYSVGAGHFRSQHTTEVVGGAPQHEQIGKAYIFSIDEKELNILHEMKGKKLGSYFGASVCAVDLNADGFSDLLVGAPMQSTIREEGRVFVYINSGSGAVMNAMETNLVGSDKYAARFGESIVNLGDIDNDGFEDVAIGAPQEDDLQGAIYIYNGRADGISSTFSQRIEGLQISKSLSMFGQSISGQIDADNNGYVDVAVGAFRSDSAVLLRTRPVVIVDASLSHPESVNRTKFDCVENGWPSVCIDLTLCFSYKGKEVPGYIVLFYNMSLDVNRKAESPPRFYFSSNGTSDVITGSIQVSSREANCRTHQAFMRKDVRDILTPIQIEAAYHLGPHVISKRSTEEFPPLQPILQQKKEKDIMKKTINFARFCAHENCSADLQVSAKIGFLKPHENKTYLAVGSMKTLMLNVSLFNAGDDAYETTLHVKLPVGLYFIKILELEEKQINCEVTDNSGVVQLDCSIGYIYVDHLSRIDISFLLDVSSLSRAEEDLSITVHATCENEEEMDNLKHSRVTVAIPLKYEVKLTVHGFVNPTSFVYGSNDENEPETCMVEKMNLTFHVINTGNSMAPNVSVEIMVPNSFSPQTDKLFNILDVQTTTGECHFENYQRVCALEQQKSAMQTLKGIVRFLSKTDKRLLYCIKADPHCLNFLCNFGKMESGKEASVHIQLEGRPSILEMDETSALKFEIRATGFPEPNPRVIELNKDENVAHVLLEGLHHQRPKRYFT
# T2 sequence (P26010 20-723 limits assumed): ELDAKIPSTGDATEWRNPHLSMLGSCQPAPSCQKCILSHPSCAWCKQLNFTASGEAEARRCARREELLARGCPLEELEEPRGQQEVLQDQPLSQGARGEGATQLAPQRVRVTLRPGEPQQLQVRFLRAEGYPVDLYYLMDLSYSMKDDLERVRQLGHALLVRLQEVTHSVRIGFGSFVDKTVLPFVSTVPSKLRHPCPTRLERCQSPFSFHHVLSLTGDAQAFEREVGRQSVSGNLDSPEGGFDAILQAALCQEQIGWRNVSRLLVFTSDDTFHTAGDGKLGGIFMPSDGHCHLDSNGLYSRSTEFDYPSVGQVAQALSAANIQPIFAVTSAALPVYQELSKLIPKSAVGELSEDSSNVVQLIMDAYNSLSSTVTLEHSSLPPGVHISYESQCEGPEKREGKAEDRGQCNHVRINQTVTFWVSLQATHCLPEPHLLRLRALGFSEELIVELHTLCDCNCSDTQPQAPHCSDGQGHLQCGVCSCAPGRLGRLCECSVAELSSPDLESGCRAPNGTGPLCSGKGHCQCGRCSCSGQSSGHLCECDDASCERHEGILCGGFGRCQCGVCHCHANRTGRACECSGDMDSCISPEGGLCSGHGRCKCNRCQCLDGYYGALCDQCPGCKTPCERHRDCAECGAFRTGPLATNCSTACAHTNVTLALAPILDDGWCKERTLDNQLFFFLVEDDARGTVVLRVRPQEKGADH
# Procedure: Integrin α4β7—MAdCAM-1 ELISA Competition Assay
# Protocol • 1.1 Preparation of α4β7. • 1.1.1 Add 500 μL of PBS to the vial. […] Mix by inversion before use. Keep at 4° C. for up to 1 month. • Final concentration is 100 pg/mL • 1.1 Preparation of MadCam-Fc. • 1.1.1 Add 500 μL of Assay buffer to the vial. […] Mix by inversion before use.
# Chain of CYP2D6 (P10635 whole entry): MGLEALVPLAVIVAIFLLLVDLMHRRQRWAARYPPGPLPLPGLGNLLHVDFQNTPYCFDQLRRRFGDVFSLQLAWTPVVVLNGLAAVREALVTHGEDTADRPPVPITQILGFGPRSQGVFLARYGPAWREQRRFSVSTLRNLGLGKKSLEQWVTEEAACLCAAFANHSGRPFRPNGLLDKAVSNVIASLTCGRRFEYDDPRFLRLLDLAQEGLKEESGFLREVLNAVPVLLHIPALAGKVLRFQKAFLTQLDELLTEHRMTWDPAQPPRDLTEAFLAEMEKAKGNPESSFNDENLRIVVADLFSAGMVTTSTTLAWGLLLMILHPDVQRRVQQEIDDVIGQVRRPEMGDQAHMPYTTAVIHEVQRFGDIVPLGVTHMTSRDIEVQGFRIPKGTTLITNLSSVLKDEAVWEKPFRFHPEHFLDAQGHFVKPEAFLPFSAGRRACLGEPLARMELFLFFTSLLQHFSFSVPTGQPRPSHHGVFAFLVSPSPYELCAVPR
# Chain of CYP2C9 (P11712 whole entry): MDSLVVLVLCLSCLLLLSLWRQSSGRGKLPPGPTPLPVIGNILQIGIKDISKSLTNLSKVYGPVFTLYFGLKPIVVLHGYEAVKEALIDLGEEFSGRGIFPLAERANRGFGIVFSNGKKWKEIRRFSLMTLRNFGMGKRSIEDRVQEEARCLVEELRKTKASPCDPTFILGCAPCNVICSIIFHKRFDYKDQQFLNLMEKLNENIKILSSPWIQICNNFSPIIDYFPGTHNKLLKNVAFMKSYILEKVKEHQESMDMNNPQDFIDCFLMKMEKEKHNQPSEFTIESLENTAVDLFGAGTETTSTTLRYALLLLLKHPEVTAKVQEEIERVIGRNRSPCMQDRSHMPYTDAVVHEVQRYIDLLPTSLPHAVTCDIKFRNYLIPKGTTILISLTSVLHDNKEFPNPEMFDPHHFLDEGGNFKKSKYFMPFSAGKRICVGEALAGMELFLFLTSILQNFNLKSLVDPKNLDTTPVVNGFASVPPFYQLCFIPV
# Chain of CYP3A4 (P08684 whole entry): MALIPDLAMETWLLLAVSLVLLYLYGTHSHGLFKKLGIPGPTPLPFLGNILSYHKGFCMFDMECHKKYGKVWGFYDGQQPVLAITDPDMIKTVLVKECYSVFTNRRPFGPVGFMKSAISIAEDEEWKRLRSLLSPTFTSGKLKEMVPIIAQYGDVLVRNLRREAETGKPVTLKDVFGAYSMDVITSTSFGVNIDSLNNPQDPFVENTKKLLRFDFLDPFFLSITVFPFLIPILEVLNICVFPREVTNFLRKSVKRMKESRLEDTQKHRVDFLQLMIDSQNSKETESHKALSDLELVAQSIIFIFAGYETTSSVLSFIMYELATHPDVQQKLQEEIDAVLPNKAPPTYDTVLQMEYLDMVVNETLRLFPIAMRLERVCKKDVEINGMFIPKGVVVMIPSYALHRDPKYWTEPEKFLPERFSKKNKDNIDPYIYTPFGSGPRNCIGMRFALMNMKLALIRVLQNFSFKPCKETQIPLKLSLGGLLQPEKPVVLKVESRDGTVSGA
smiles,measurement,setting,value
CC[C@H](C)[C@@H]1NC(=O)[C@H](CC(=O)O)NC(=O)[C@H](CC(C)C)NC(=O)[C@H](Cc2ccc3ccccc3c2)NC(=O)[C@@H]2CCCN2[C@H](C(=O)NC(C)(C)C)[C@H](C)NC1=O [Compound No. 15],IC50,[1],> 15 µM
same,IC50,[2],> 15 µM
same,IC50,[3],> 15 µM
same,"recovery at 5 hours, 0.1 uM",[4],70%
same,"fraction unbound at 5 hours, 1 microM",[5]; % unbound (Cbuffer/Cplasma) 1,0.1
same,"fraction unbound at 5 hours, 1 microM",[5]; % unbound (Cbuffer/Cplasma) 2,0.093
same,"fraction unbound at 5 hours, 1 microM",[5]; % unbound (Cbuffer/Cplasma) 3,0.136
same,IC50,[6],> 15 µM
same,Control buffer/Buffer at 0.1 uM Cdonor/Creciever,[7],86%
same,"recovery at 5 hours, 1 microM",[8]; first table,103%
same,"recovery at 5 hours, 1 microM",[8]; second table,143%
CC(C)C[C@@H]1NC(=O)c2ccc(-c3ccc(N4CCNCC4)cc3)c(c2)CNC(=O)[C@@H]2CCCN2[C@H](C(=O)NC(C)(C)C)[C@H](C)NC(=O)[C@H]([C@@H](C)O)NC(=O)[C@H](CC(=O)O)NC1=O [Compound No. 340],CD3+CD4+α4β7+ cell population in mesenteric lymph nodes,[9],significant decrease
same,reduction of lesion length vs vehicle group,[9]; Day 5 to Day 8,significantly reduced the lesion length
same,reduction of DAI score on Day 8 vs DSS+vehicle,"[9]; b.i.d., Day 5 to Day 8",15%
same,lesion/colon length,[9]; vehicle group 40%,12%
same,oral bioavailability (in words),[10],significant absorption from the gut and systemic exposure
same,bioavailability,[11],~11%
same,AUC(0-inf),"[11]; iv, 5 mg/kg",778 ng·h/mL
same,C0,"[11]; iv, 5 mg/kg",1410 ng/mL
same,Cmax,"[11]; iv, 5 mg/kg",1330 ng/mL
same,MRT inf,"[11]; iv, 5 mg/kg",41.9 min
same,Vd,"[11]; iv, 5 mg/kg",4.49 L/kg
same,clearance,"[11]; iv, 5 mg/kg",107 mL/min/kg
same,half-life,"[11]; iv, 5 mg/kg",120 min
same,AUC(0-inf),"[11]; po, 40 mg/kg",690 ng·h/mL
same,AUC(0-t),"[11]; po, 40 mg/kg",686 ng·h/mL
same,MRT inf,"[11]; po, 40 mg/kg",41.3 min
same,half-life,"[11]; po, 40 mg/kg",32.2 min
same,half-life in the liver,[12]; following oral dosing 40 mg/kg,~480 min
same,AUC(0-t),"[12]; male, CD-1, mouse, in vivo, iv, 5 mg/kg",778 ng·h/mL
same,Tmax,"[12]; male, CD-1, mouse, in vivo, po, 40 mg/kg",5 min
same,half-life,"[12]; male, CD-1, mouse, in vivo, po, 40 mg/kg, elimination half-life in plasma, following oral dosing 40 mg/kg",~30 min
same,half-life,"[12]; male, CD-1, mouse, in vivo, po, 40 mg/kg, half-life in colon, following oral dosing 40 mg/kg",> 1260 min
same,F,[12]; i.v. 5 mg/kg,100%
same,F,[12]; p.o. 40 mg/kg,11.0%
CC(C)C[C@@H]1NC(=O)[C@H]2CCCCN2C(=O)[C@H](Cc2ccc(O)cc2)N(C)C(=O)[C@@H]2CCCN2[C@H](C(=O)NC(C)(C)C)[C@H](C)NC(=O)[C@H]([C@@H](C)O)NC(=O)[C@H](CC(=O)O)NC1=O [Compound 148],Selectivity ELISA,[13],1.2
COc1ccccc1-c1ccccc1C[C@@H]1NC(=O)[C@@H]2CCCN2[C@H](C(=O)NC(C)(C)C)[C@H](C)NC(=O)[C@H]([C@@H](C)O)NC(=O)[C@H](CC(=O)O)NC(=O)[C@H](CC(C)C)NC(=O)[C@H]2CCCCN2C1=O [Compound 135],Selectivity ELISA,[13],4.9
